Reference: paper PMC11285368, “Chasing Red Herrings: Palladium Metal Salt Impurities Feigning KRAS Activity in Biochemical Assays” (Journal of Medicinal Chemistry, 2024)
Read-outs that look alike come from different tables or passages of the source.

Key:
KRAS^G12D(GTP)::CRAF = biological target: T1, KRAS^G12D(GTP)::CRAF (Homo sapiens, UniProt P01116, G12D); experiment: KRAS^G12D(GTP)::CRAF AlphaScreen; type: biochemical
T1 construct: KRAS^G12D 1–169, N-terminal 6His-tag, C-terminal avi-tag (Xtal BioStructures, Inc.); 6His (N); purchased Xtal BioStructures, Inc. (KRAS); Viva Biotech Ltd. (CRAF)
Experimental: The proteins have been used at these given final assay concentrations:
Test compounds dissolved in DMSO were dispensed onto assay plates (Proxiplate 384 PLUS, white, PerkinElmer; 6008289) using an Access Labcyte Workstation with the Labcyte Echo 555. For the chosen highest assay concentration of 100 μM, 150 nl of compound solution were transferred from a 10 mM DMSO compound stock solution. A series of 11 5-fold dilutions per compound was transferred to the assay plate, and compound dilutions were tested in duplicates. DMSO was added as backfill to a total volume of 150 nl. The assay was run on a fully automated robotic system in a darkened room below 100 Lux. […] After 60 min incubation time 5 μL of AlphaScreen bead mix in assay buffer were added into columns 1–23. Bead mix consisted of AlphaLISA Glutathione Acceptor Beads (PerkinElmer, cat. no. AL109) and Alpha-Screen Streptavidin Donor Beads (perkinElmer cat. no. 6760002) in assay buffer at a final assay concentration of 10 μg/mL each. Plates were kept at room temperature in a darkened incubator. After an additional 60 min incubation time the signal was measured on a PerkinElmer Envision HTS Multilabel Reader using the AlphaScreen specs from PerkinElmer.
IC50 values were calculated and analyzed with Boehringer Ingelheim’s MEGALAB IC50 application using a 4 parametric logistic model.

biotinylated GST = biotinylated GST (Schistosoma japonicum, UniProt P08515); experiment: Control assay (AlphaScreen Shortcut); type: biochemical
Sequence of biotinylated GST (P08515 whole entry): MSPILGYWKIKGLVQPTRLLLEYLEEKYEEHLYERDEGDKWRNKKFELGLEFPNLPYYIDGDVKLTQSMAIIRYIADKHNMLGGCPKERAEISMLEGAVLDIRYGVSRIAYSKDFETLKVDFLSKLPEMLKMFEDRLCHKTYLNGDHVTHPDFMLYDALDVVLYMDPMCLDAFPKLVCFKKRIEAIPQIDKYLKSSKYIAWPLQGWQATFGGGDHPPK
Experimental: This assay was developed to identify compounds that interfere with the assay format using AlphaLISA Glutathione Acceptor and AlphaScreen Streptavidin Donor beads. The assay was performed as described above using biotinylated GST as bridging reagent instead of KRAS^G12D and CRAF mix.

KRAS^G12D(GCP) = KRAS^G12D(GCP) (Homo sapiens, UniProt P01116, G12D); experiment: KRAS STD-NMR; type: binding; details: Batch 1; 10 μM KRAS^G12D(GCP), 1000 μM ligand; approximated visually
Experimental: Experiments were recorded with a saturation time Tsat of 2 s and a total recycle delay of 3.6 s with the standard Bruker pulse program stddiffgp19.2. The shaped pulse train was made of G4 pulses with a length of 50 ms at a power of 31 μW. Here on resonance saturation was applied at 100 Hz and off resonance at 20000 Hz. No spin locking was applied to reduce the protein background. Here, 256 scans were applied with a time domain of 32 000 and the watergate delay was set to 90 μs to reduce remaining HDO signal intensity. 10 μM KRAS^G12D(GCP) and 1000 μM ligand was added for the STD NMR experiments and the percent enhancements approximated visually since no additional analysis was performed.

KRAS “on” = KRAS “on” (Homo sapiens, UniProt P01116); experiment: NMR-based fragment screen, KD (NMR); type: binding
[1] = Batch 1, read-out: KRAS^G12D(GTP)::CRAF AlphaScreen IC50
[2] = Batch 2 (resynthesized), read-out: KRAS^G12D(GTP)::CRAF AlphaScreen IC50
[3] = confirmation screen, read-out: IC50, KRAS^G12D(GTP)::CRAF high-throughput AlphaScreen
[4] = Control assay IC50, Batch 2 (resynthesized)

| SMILES | IC50 (KRAS^G12D(GTP)::CRAF; [1]) [µM] | IC50 (KRAS^G12D(GTP)::CRAF; [2]) [µM] | IC50 (KRAS^G12D(GTP)::CRAF; Batch 3 (NP repurified), read-out: KRAS^G12D(GTP)::CRAF AlphaScreen IC50) [µM] | IC50 (KRAS^G12D(GTP)::CRAF; [3]) [µM] | IC50 (biotinylated GST; Control assay IC50, Batch 1) [µM] | IC50 (biotinylated GST; [4]) [µM] | IC50 (biotinylated GST; Control assay IC50, Batch 3 (NP repurified)) [µM] | KRAS STD-NMR percent enhancement (KRAS^G12D(GCP)) [%] | Kd (KRAS “on”) [µM] |
| --- | --- | --- | --- | --- | --- | --- | --- | --- | --- |
| O=C1NCCc2c1[nH]c1c(-c3ccoc3)cccc21 [Cmpd 3, 8-(Furan-3-yl)-2H,3H,4H,9H-pyrido[3,4-b]indol-1-one] | 11 ± 1.5 | 51.5 ± 3.5 | 78.3 ± 2.9 | 8.1 | 34 ± 2.6 | 69.7 ± 6.7 | > 100 | 11 | – |
| O=C1NCCc2c1[nH]c1c(-c3ccncc3)cccc21 [Cmpd 4, 8-(Pyridin-4-yl)-2H,3H,4H,9H-pyrido[3,4-b]indol-1-one] | 8.6 ± 0.8 | 77.3 ± 55.7 | – | 6.3 | > 100 | > 100 | – | 7 | – |
| c1ccc2c(Cc3nc4ccncc4[nH]3)c[nH]c2c1 [FBS Hit 1] | > 100 | – | – | – | > 100 | – | – | – | 1200 |
| Clc1ccc2[nH]c3c(c2c1)CNCC3 [FBS Hit 2] | > 100 | – | – | – | > 100 | – | – | – | > 2000 |
